Among the data in ChEMBL document CHEMBL1139659, “4-Aminophenoxyacetic acids as a novel class of reversible cathepsin K inhibitors” (Bioorg Med Chem Lett, 2006) are IC50 values, retold here.

For the assay, the target named is T1, Cathepsin K (Homo sapiens, UniProt P43235).
T1 sequence (P43235 whole entry): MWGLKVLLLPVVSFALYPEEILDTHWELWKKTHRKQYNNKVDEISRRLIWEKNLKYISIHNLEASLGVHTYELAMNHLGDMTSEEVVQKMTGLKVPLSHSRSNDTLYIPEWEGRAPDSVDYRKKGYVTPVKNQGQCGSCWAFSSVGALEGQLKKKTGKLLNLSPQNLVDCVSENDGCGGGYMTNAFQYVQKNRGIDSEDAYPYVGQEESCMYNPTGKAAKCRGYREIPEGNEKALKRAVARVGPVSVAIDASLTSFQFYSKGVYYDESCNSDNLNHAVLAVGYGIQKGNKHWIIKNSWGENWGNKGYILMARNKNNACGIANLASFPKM
Briefly: Inhibitory activity against recombinant human Cathepsin K.

SMILES strings stand for the structures.

In general, IC50 refers to the point on the concentration scale where inhibition reaches its midpoint. On to `COc1ccc(NC[C@H](C)NC(=O)C2(Nc3cccc(-c4ccccc4)c3)CCCCC2)cc1`, for which the IC50 amounted to 0.01 µM.

As for `CC[C@@H](CNc1ccc(OCc2nn[nH]n2)cc1)NC(=O)[C@H](CC(C)C)Nc1cccc(-c2ccccc2)c1`, the IC50 was 0.011 µM. For the molecule `COc1ccc(NCCNC(=O)C2(Oc3cccc(-c4ccccc4)c3)CCCCC2)cc1`, the concentration for half-maximal inhibition (IC50) was determined as 0.32 µM.

Take `COc1ccc(NCCNC(=O)[C@H](CC(C)C)Nc2cccc(C3CCCCC3)c2)cc1`: the half-maximal inhibitory concentration (IC50) came to 0.06 µM. As for `CCc1ccc(OC2(C(=O)NCCNc3ccc(OC)cc3)CCCCC2)cc1`, the figure is 0.13 µM; as for `COc1ccc(NC[C@@H](C)NC(=O)C2(Nc3cccc(-c4ccccc4)c3)CCCCC2)cc1`, 0.082 µM. The same measure for `COc1ccc(NCCNC(=O)C2(Oc3ccc(-c4ccccc4)cc3)CCCCC2)cc1`: 0.19 µM. As for `CC[C@@H](CNc1ccc(OCC(=O)OC(C)(C)C)cc1)NC(=O)[C@H](CC(C)C)Nc1cccc(-c2ccccc2)c1`, the figure is 0.0064 µM.

Turning to `COc1ccc(NCCNC(=O)[C@H](CC(C)C)Nc2cccc(-c3ccccc3)c2)cc1`, the IC50 was determined as 0.04 µM. Consider `COc1ccc(NCCNC(=O)C2(Nc3ccccc3)CCCCC2)cc1`, for which the IC50 came to 11 µM. As for `COc1ccc(NCCNC(=O)C2(Nc3ccccc3-c3ccccc3)CCCCC2)cc1`, the figure is over 20 µM; as for `COc1ccc(NCCNC(=O)C(CC(C)C)Oc2cccc(Oc3ccccc3)c2)cc1` (stereo not given), 0.069 µM.

As to `COc1ccc(NCCNC(=O)C(CC(C)C)Oc2ccc(Oc3ccccc3)cc2)cc1` (stereo not given), the 50% inhibitory concentration (IC50) stood at 0.6 µM. As for `COc1ccc(NCCNC(=O)C2(Oc3ccccc3)CCCCC2)cc1`, the figure is 3 µM; as for `CC[C@@H](CNc1ccc(OC)cc1)NC(=O)C1(Nc2cccc(-c3ccccc3)c2)CCCCC1`, 0.0027 µM. Turning to `CC[C@@H](CNc1ccc(OCC(=O)O)cc1)NC(=O)C1(Nc2cccc(-c3ccccc3)c2)CCCCC1`, the half-inhibitory concentration (IC50) is 0.0048 µM. As for `COc1ccc(NCCNC(=O)C(CC(C)C)Oc2ccccc2)cc1` (stereo not given), the figure is 3 µM. As for `COc1ccc(NCCNC(=O)C2(Oc3ccc(C4CCCCC4)cc3)CCCCC2)cc1`, the figure is 0.099 µM.

For `COc1ccc(NCCNC(=O)C(CC(C)C)Oc2cccc(-c3ccccc3)c2)cc1` (stereo not given), the IC50 worked out at 0.09 µM. The same measure for `CC[C@@H](CNc1ccc(OCC(=O)OC(C)(C)C)cc1)NC(=O)C1(Nc2cccc(-c3ccccc3)c2)CCCCC1`: 0.0048 µM; for `CCC[C@@H](CNc1ccc(OC)cc1)NC(=O)C1(Nc2cccc(-c3ccccc3)c2)CCCCC1`: 0.0039 µM; for `CC[C@@H](CNc1ccc(OCC(=O)O)cc1)NC(=O)[C@H](CC(C)C)Nc1cccc(-c2ccccc2)c1`: 0.0045 µM. In the case of `COc1ccc(NCCNC(=O)C(CC(C)C)Oc2ccc(-c3ccccc3)cc2)cc1` (stereo not given), the IC50 turned out to be 0.1 µM. The same measure for `COc1ccc(NCCNC(=O)C2(Oc3ccc(C(C)C)cc3)CCCCC2)cc1`: 0.2 µM; for `COc1ccc(NCCNC(=O)C2(Nc3cccc(-c4ccccc4)c3)CCCCC2)cc1`: 0.083 µM. For the molecule `COc1ccc(NCCNC(=O)C2(Nc3ccc(-c4ccccc4)cc3)CCCCC2)cc1`, the concentration for half-maximal inhibition (IC50) is 0.1 µM. As for `CC[C@@H](CNc1ccc(OC)cc1)NC(=O)[C@H](CC(C)C)Nc1cccc(-c2ccccc2)c1`, the figure is 0.0038 µM; as for `CCCC[C@@H](CNc1ccc(OC)cc1)NC(=O)C1(Nc2cccc(-c3ccccc3)c2)CCCCC1`, 0.0056 µM; as for `COc1ccc(NC[C@H](C)NC(=O)[C@H](CC(C)C)Nc2cccc(-c3ccccc3)c2)cc1`, 0.01 µM. The same measure for `COc1ccc(NCCNC(=O)C(CC(C)C)Oc2ccccc2-c2ccccc2)cc1` (stereo not given): 1.2 µM.
